Tested on: CD163+ TAMs
Format: in vivo, mouse
Protocol: To deplete CD163^+ TAM we generated knock-in mice expressing iCre recombinase from a Cd163-IRES-iCre transcript (CD163-iCre) and crossed them to Csflr-LSL-DTR mice that after cre-mediated deletion of LSL, have DTR expression under the control of the Csflr promotor. A single injection of 4 ng/kg diphteria toxin (DT) specifically depleted close to 50% of CD163+ TAMs after 24 hrs (data not shown). No effect, was observed on the remaining myeloid compartment except for a small increase in recruited monocytes (data not shown). Next, we attempted to achieve sustained depletion of CD163+ TAMs by repeated DT injections.

## diphteria toxin [DT]
Repeated DT injections
  side effects of sustained depletion of CD163+ macrophages: severe side-effect
Repeated DT injections, CD163-iCre+/-, Csf1r-LSL-DTR+/- mice compared to Csf1r-LSL-DTR wildtype mice
  tumor growth: significantly reduced tumor growth
Single injection of 4 ng/kg DT, after 24 hrs
  depletion of CD163+ TAMs: ~50%
Single injection of 4 ng/kg DT, except for a small increase in recruited monocytes
  effect on the remaining myeloid compartment: No effect
